In paper PMC5987196 (ACS infectious diseases, 2017):
Read-outs that look alike come from different tables or passages of the source.

Tests used:
[1] = molecular target: T1, ADC-7 (Acinetobacter baumannii, UniProt Q6DRA1); details: previously reported value for the lead compound; cited from earlier work
[2] = tested on: AB0057 A. baumannii spp. clinical strain; test: Disk susceptibility assay; type: cell-based; details: zone size
[3] = tested on: E. coli carrying blaADC37 encoded in pBC SK (−); test: Disk susceptibility assay; type: cell-based, Escherichia coli DH10B; details: 10 μg of BAI and 10 μg of ceftazidime per disk, zone size
[4] = tested on: E. coli carrying blaADC37 encoded in pBC SK (−); test: MIC broth microdilution with ceftazidime plus BATSI; type: cell-based, Escherichia coli DH10B; details: for MIC broth dilution: CAZ MIC with 10 μg/mL compound, CAZ varied from 0 to 128 μg/mL
[5] = molecular target: T1, ADC-7; test: Competition kinetics with nitrocefin against ADC-7 β-lactamase; type: biochemical
[6] = tested on: E. coli AmpC; details: class C enzyme lacking Arg340; cited from earlier work
[7] = molecular target: Pseudomonas PDC-3; details: class C enzyme lacking Arg340; cited from earlier work
[8] = 10 μg of BAI and 10 μg of sulbactam per disk

Compound	disk assay [2, 8]	disk assay [3]	MIC broth dilution [4]	further results
O=C(Cc1cccs1)N[C@@H](Cn1cc(C(=O)O)nn1)B(O)O [3a, (1R)-2-[4-carboxy-[1,2,3]triazol-1-yl]-1-(2-thienylace-tylamino)ethaneboronic acid]	16 mm	26 mm	1 µg/mL	Ki [1]: 44 nM
O=C(O)Cc1cn(C[C@H](NC(=O)Cc2cccs2)B(O)O)nn1 [3b, (1R)-2-(4-carboxymethyl-[1,2,3]triazol-1-yl)-(2-thienylace-tylamino)ethaneboronic acid]	10 mm	18 mm	2 µg/mL	less activity relative to 3a ([5]; Ki compared with 3a): 3 fold
O=C(Cc1cccs1)N[C@@H](Cn1cc(-c2cccc(C(=O)O)c2)nn1)B(O)O [3c, (1R)-2-[4-(3-carboxyphenyl)-[1,2,3]triazol-1-yl]-1-(2-thienylacetylamino)ethaneboronic acid]	15 mm	24 mm		Ki [5]: 46 ± 3 nM
O=C(Cc1cccs1)N[C@@H](Cn1cc(-c2nn[nH]n2)nn1)B(O)O [3h, (1R)-2-[4-(2H-tetrazol-5-yl)-[1,2,3]triazol-1-yl]-1-(2-thienylacetylamino)ethaneboronic acid]	10 mm	23 mm		
O=C(Cc1cccs1)N[C@@H](Cn1cc(-c2cccc(-c3nn[nH]n3)c2)nn1)B(O)O [3j, (1R)-2-[4-(3-(2H-tetrazol-5-yl)phenyl)-[1,2,3]triazol-1-yl]-1-(2-thienylacetylamino)ethaneboronate]	6 mm	15 mm	8 µg/mL	
CC(C)(O/N=C(\C(=O)N[C@@H]1C(=O)N2C(C(=O)[O-])=C(C[n+]3ccccc3)CS[C@H]12)c1csc(N)n1)C(=O)O [CAZ, ceftazidime, reference compound]				MIC ([4]; Escherichia coli, read-out: MIC broth dilution): 32 µg/mL
O=C(Cc1cccs1)N[C@@H](Cc1cccc(C(=O)O)c1)B(O)O [EC04, reference compound]	11 mm	21 mm	2 µg/mL	Ki [6]: 1 nM; Ki [7]: 220 nM
O=C(Cc1cccs1)N[C@H](B(O)O)c1cccc(C(=O)O)c1 [SM23, reference compound]	12 mm	25 mm	1 µg/mL	Ki [6]: 1 nM; Ki [7]: 4 nM
CC1(C)[C@H](C(=O)O)N2C(=O)C[C@H]2S1(=O)=O [SUL, sulbactam, reference compound]				disk assay ([2]; SUL alone, 10 μg): SUL 6 mm; disk assay ([2]; SUL alone, 10 μg, listed as sulbactam): 6 mm
(1R)-2-(4-carboxamido-[1,2,3]triazol-1-yl)-1-(2-thienylacetylamino)ethaneboronate [3d]	10 mm	18 mm	4 µg/mL	
(1R)-2-(4-idroxycarbamoyl-[1,2,3]triazol-1-yl)-1-(2-thienylacetylamino)ethaneboronic acid [3e]	8 mm	16 mm	2 µg/mL	
